Where a name gives a salt, the structure may show the parent alone. Activity calls are given as the source filed them.
Assays:
INS1 = assay: INS-1E survival protection against cytokine death – cell-based, luminescence, retest, dose response (AID 449756); format: functional; conditions: Rattus norvegicus;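 further: cell death triggered by IL-1 beta plus TNF-alpha plus IFN-gamma mixture; protective hits raise ATP signal compared with cytokine alone wells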
[1] = non-specific 3'UTR reporter inhibition in Clone20-Shn3RL – cell-based, Renilla luciferase, cherry-picked, counter-screen for Shn3 inhibitor project, dose response (AID 624133); format: functional
[2] = reduction of Shn3 3'UTR-driven luciferase in osteoblasts – cell-based, Clone20 osteoblasts, firefly luciferase, cherry-picked, dose response (AID 624132); format: functional;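 further: firefly luciferase luminescence from reporter carrying the Shn3 3'UTR in osteoblasts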
[3] = loss of viability in HepG2 cells – cell-based, CellTiter-Glo, cherry-picked, cytotoxicity control for Shn3 inhibitor project, dose response (AID 624134); format: functional
[4] = general mammalian cell viability loss – inhibitor set, cherry-pick, set 2, cytotoxicity control for miR-122 modulator project, dose response (AID 720697); format: functional, cell-based
[5] = activation of miR-122 Renilla sensor silencing – cell-based, Huh7 psiCHECK-miR122, Renilla luciferase, cherry-picked, dose response (AID 651956); format: functional;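 further: huh7 hepatoma cells stably carrying a psiCHECK-2 miR-122 sensor plasmid; renilla luciferase signal reporting endogenous miR-122 activity after 48 h compound exposure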
[6] = target: Photoreceptor-specific nuclear receptor (Homo sapiens, UniProt Q9Y5X4); format: functional, cell-based;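 further: CHO-S cells with Gal4-NCOR and VP16-NR2E3 two-hybrid luciferase reporter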
Sequence of Photoreceptor-specific nuclear receptor (Q9Y5X4 whole entry, the tested form may be a part): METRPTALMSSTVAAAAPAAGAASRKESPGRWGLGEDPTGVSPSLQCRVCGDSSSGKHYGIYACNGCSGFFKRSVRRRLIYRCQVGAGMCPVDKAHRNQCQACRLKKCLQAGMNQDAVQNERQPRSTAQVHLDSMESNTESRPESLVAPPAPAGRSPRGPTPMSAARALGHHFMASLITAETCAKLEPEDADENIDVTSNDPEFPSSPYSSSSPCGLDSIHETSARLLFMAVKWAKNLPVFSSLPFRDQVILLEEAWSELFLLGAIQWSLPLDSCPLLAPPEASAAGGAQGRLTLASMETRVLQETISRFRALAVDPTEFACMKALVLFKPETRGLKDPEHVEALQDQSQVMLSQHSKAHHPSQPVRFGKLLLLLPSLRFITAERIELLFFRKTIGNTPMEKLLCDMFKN

[7] = target: T1, Sentrin-specific protease 8 (Homo sapiens, UniProt Q96LD8); format: functional
T1 sequence (Q96LD8 whole entry): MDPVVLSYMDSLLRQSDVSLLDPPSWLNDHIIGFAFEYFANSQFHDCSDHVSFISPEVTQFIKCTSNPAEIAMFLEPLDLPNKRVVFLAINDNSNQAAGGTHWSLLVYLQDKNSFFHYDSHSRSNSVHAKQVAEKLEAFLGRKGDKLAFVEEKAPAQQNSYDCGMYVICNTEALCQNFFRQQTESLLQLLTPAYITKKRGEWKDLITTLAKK

[8] = target: T1, Sentrin-specific protease 8; format: functional; remark: listed apart in the source
Caspase-3 = target: T2, Caspase-3 (Homo sapiens, UniProt P42574); format: functional;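 further: Dose-response selectivity test against caspase-3 for candidate inhibitors of sentrin-specific proteases (SENPs)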
T2 sequence (P42574 whole entry): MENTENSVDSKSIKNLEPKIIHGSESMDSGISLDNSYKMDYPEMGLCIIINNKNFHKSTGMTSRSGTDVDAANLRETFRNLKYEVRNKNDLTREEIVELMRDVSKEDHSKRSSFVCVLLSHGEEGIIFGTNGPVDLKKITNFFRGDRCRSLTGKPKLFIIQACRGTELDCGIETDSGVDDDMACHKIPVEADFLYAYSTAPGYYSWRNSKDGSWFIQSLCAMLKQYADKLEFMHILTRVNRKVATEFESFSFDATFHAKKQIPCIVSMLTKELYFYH

[9] = target: T3, Sentrin-specific protease 6 (Homo sapiens, UniProt Q9GZR1); format: functional;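 further: Luminescence-based dose-response confirmatory assay of SENP6 inhibition, following up an ultra-high-throughput screen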
T3 sequence (Q9GZR1 whole entry): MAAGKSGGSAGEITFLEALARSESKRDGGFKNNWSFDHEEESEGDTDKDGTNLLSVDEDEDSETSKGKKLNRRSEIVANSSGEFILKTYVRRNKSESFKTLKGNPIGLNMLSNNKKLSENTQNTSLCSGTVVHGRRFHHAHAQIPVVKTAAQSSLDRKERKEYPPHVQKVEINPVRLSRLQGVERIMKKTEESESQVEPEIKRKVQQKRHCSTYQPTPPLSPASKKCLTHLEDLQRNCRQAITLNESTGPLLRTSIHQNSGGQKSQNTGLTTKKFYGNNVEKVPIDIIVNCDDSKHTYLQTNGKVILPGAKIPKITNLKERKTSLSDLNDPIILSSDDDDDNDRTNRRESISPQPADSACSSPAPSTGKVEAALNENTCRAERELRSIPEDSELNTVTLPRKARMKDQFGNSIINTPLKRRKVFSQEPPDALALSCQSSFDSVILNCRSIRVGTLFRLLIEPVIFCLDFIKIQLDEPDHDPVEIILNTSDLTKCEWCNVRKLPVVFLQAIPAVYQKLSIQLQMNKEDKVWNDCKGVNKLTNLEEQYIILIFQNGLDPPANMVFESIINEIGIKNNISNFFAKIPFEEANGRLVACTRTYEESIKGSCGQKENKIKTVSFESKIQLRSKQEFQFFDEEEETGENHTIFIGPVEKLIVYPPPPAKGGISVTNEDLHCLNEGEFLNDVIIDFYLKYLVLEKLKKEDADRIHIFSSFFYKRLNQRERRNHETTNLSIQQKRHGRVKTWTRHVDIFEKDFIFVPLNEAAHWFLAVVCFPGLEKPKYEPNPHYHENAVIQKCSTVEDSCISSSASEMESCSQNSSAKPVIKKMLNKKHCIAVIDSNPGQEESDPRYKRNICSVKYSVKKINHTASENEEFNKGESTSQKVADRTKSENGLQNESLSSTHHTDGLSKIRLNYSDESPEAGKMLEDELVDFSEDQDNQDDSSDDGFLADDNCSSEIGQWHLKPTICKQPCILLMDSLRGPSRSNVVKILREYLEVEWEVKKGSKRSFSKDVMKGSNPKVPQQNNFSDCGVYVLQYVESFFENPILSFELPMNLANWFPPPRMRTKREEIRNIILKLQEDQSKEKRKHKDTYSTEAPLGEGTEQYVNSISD

[10] = target: T1, Sentrin-specific protease 8; format: functional; remark: listed apart in the source
[11] = target: T4, Sentrin-specific protease 7 (Homo sapiens, UniProt Q9BQF6); format: functional;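 further: Luminescence-based dose-response confirmation of ultra-high-throughput screening hits, measuring inhibition of SENP7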
T4 sequence (Q9BQF6 whole entry): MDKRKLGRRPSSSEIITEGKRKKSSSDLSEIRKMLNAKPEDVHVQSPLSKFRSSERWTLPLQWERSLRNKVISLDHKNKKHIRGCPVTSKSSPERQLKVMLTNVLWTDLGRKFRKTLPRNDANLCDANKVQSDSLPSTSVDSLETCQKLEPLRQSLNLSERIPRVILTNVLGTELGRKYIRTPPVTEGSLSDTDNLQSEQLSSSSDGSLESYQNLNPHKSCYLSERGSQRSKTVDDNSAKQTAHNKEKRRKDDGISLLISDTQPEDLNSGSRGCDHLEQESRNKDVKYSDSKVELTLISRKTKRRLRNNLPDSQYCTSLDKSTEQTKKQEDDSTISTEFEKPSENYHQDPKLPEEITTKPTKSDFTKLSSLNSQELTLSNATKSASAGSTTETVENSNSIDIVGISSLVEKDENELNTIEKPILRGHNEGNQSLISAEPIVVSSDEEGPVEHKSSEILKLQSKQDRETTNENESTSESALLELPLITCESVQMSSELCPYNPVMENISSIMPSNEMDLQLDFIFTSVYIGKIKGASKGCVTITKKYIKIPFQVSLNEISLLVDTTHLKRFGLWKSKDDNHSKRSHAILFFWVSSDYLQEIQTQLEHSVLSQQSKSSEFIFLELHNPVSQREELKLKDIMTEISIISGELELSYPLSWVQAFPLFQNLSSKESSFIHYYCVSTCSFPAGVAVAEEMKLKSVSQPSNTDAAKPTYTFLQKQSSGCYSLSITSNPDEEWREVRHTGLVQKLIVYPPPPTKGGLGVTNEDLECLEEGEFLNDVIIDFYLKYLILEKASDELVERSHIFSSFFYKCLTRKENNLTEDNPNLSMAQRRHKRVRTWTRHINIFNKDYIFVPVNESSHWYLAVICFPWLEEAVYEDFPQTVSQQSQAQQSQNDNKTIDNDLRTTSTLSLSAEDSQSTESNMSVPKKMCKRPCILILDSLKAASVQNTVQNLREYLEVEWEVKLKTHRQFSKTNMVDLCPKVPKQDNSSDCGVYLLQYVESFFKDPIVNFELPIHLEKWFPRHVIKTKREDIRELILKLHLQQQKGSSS

Mu-type opioid receptor = Mu-type opioid receptor (Homo sapiens, UniProt P35372); format: functional, cell-based;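 further: U2OS cells with beta-arrestin recruitment to OPRM1 by beta-gal complementation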
Sequence of Mu-type opioid receptor (P35372 whole entry): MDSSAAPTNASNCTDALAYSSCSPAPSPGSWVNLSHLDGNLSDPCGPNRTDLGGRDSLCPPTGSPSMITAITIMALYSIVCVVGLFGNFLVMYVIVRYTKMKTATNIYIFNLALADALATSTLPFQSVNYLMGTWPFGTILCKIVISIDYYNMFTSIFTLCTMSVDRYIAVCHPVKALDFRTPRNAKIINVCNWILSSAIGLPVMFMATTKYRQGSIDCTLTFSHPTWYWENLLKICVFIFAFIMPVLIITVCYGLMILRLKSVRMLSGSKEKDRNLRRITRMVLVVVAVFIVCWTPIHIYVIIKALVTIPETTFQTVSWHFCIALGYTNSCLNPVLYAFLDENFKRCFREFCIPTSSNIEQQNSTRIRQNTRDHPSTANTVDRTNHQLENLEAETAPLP

cells [12] = format: functional, cell-based
[13] = target: T5, Nuclear receptor subfamily 0 group B member 1 (Homo sapiens, UniProt P51843); format: functional, cell-based;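 further: HEK293T cells transfected with SF-1 and DAX-1 plus StAR promoter luciferase reporter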
T5 sequence (P51843 whole entry): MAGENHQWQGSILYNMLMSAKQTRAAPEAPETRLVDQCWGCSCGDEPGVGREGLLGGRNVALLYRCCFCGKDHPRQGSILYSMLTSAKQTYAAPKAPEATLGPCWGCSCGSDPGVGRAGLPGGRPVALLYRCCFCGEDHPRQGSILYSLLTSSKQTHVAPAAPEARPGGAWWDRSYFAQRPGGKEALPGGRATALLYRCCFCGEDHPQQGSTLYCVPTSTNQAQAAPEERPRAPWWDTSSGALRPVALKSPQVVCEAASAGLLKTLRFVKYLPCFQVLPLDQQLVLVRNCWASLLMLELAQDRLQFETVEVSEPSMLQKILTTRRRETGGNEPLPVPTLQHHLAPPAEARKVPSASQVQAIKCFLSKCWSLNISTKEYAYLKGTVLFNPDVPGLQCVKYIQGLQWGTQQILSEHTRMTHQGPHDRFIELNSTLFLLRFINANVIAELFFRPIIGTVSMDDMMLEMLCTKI

[14] = target: Dual specificity tyrosine-phosphorylation-regulated kinase 1A (Rattus norvegicus, UniProt Q63470); format: biochemical, Homo sapiens
cells [15] = format: functional
[16] = target: FAD-linked sulfhydryl oxidase ALR (Homo sapiens, UniProt P55789); assay: ALR-catalysed DTT oxidation blockers – biochemical, H2O2 detection, luminescence, cherry-pick, dose response (AID 493248)
Sequence of FAD-linked sulfhydryl oxidase ALR (P55789 whole entry): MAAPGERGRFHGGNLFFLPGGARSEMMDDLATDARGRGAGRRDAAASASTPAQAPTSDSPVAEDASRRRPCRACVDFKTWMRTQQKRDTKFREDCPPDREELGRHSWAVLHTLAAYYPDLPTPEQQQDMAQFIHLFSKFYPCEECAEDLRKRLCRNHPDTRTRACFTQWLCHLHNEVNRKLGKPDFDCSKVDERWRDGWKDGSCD

Beta-galactosidase = Beta-galactosidase (Escherichia coli, UniProt Q8VNN2); assay: Dose response counterscreen for EBI2 assay utilizing the enzyme, b-galactosidase.; format: functional
Sequence of Beta-galactosidase (Q8VNN2 whole entry): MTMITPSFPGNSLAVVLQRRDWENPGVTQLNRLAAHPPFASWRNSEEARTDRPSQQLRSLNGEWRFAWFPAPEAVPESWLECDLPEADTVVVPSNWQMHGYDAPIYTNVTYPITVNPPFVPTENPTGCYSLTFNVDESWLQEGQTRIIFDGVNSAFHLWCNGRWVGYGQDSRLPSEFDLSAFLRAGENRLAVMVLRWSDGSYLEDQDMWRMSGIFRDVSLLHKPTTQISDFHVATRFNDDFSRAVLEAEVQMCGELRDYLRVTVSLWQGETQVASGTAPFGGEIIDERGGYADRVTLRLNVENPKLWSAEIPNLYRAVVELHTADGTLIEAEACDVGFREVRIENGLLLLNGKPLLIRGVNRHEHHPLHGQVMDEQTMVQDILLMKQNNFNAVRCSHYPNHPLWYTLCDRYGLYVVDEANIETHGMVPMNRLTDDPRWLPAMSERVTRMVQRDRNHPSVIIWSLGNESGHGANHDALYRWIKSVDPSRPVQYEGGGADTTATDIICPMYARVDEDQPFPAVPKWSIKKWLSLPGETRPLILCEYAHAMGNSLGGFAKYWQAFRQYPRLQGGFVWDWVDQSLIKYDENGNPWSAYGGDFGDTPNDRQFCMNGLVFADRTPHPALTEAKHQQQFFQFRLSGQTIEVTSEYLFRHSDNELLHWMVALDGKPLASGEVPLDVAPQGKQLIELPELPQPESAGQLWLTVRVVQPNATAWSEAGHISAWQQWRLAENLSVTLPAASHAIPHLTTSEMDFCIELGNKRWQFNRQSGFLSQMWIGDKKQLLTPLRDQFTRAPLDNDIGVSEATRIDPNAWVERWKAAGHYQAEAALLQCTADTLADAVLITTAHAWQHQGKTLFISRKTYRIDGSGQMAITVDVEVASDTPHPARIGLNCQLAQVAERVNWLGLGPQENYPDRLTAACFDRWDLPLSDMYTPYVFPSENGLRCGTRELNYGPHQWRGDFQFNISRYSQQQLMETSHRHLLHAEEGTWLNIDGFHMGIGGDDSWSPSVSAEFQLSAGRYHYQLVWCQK

COCCC1CCCCN1C(=O)c1cc(COc2ccc(-n3cncn3)cc2)on1 (stereo not given)
AC50 (INS1): 3.08 µM (active)
AC50 [1]: 1.22 µM (active)
AC50 [2]: 0.57 µM (active)
AC50 [3]: 50.5 µM (active)

COc1ccc(C(=O)/C=C/C(=O)N(CC(=O)NCCC(C)C)Cc2cccs2)c(O)c1
AC50 [1]: 13.2 µM (active)
AC50 [2]: 3.49 µM (active)
AC50 [3]: 51.7 µM (active)

O=S(=O)(Nc1nccs1)c1ccc(NS(=O)(=O)c2cccs2)cc1
AC50 [4]: 5.42 µM (active)
AC50 [5]: 20.1 µM (active)

CN(Cc1ccccc1)C(=O)COC(=O)c1ccccc1Nc1ccccc1
AC50 [4]: 8.73 µM (active)

CCNc1nc2c(c(=O)n(C)c(=O)n2C)n1Cc1ccc(Cl)cc1
IC50 [6]: 14.7 µM (inactive)

O=C(N/N=C/c1ccc([N+](=O)[O-])o1)c1ccncc1
IC50 [7]: 35.3 µM (active)
IC50 [8]: 39.9 µM (active)

Cc1nc(C)c(-c2csc(Nc3ncccc3C)n2)s1
IC50 (Caspase-3): 16.4 µM (active)
IC50 [9]: 5.89 µM (active)
IC50 [10]: > 100 µM (inactive)
IC50 [11]: 3.96 µM (active)

CCCN1C[C@H](CSC)C[C@@H]2c3cccc4[nH]cc(c34)C[C@H]21 [PERGOLIDE MESYLATE]
EC50 (Mu-type opioid receptor): 92.5 µM (inactive)

CCN(C(=O)c1cc2c(=O)n3ccccc3nc2n1C)C1CCCCC1
IC50 (cells [12]): > 67.5 µM (inactive)
IC50 [13]: > 67.5 µM (inactive)

CC1Cc2cc(/C=C3/SC(=S)NC3=O)ccc2O1 (stereo not given)
IC50 (Caspase-3): 16.9 µM (active)
AC50 [14]: 0.308 µM (active)
IC50 (cells [15]): 39.3 µM (active)
IC50 [9]: 8.72 µM (active)
IC50 [10]: 39.1 µM (active)
IC50 [11]: 9.86 µM (active)

O=NN(CC(=O)NNc1ccccc1)CC(=O)NNc1ccccc1
IC50 [6]: 18.3 µM (inactive)

Cc1ccc(/C=N/Nc2ccc3ccccc3n2)o1
IC50 (cells [12]): > 67.5 µM (inactive)
AC50 [16]: 5.31 µM (active)
IC50 [13]: > 67.5 µM (inactive)

CCC(CO)Oc1cc(NCc2ccncc2)c2ncn(C(C)C)c2c1 (stereo not given)
IC50 [7]: 24.5 µM (active)
IC50 [8]: 37.6 µM (active)

Cc1cc(C)cc(NC(=O)CCc2nc3sc4c(c3c(=O)[nH]2)CCCC4)c1
IC50 [6]: 0.277 µM (active)

O=C(Nc1ccc(N2CCN(C(=O)c3ccccc3)CC2)cc1)c1ccc2c(c1)OCO2
IC50 [6]: 13.3 µM (inactive)

CCN1CCC2(CC1)N=C(c1ccc(F)cc1)C(=S)N2C(=O)c1ccc(C)cc1
IC50 [7]: 15.3 µM (active)
IC50 [8]: > 100 µM (inactive)

CSc1ccc(/C=C/C(=O)c2ccc(NC(=O)Cc3ccccc3)cc2)cc1
IC50 (Beta-galactosidase): > 80 µM (inactive)

O=C(Nc1cccc(Cl)c1)c1ccc(OC(=S)N2CCOCC2)cc1
IC50 (Caspase-3): 31.4 µM (active)
IC50 [9]: > 100 µM (inactive)
IC50 [10]: > 100 µM (inactive)
IC50 [11]: 2.85 µM (active)

CCOC(=O)N1CCN(C(=O)/C=C/c2ccc(C(C)(C)C)cc2)CC1
IC50 (Beta-galactosidase): > 80 µM (inactive)

COc1cc(-c2nc3cc(C)ccn3c2NC2CCCCC2)ccc1-c1ccc(C(C)=O)cc1
IC50 (Beta-galactosidase): 118 µM (inactive)

O=C(Nc1ccc(C(=O)N2CCCCC2)cc1)C1=CSCCO1
IC50 (cells [12]): > 67.6 µM (inactive)
IC50 [13]: > 67.6 µM (inactive)

Cc1csc(NC(=O)Cc2nn(C)c(=O)c3ccccc23)n1
AC50 [1]: 5.18 µM (active)
AC50 [2]: 6.82 µM (active)
AC50 [3]: 46.5 µM (active)

COc1ccc(/C(C)=N/Nc2nccnc2Cl)cc1
IC50 (cells [12]): > 67.6 µM (inactive)
IC50 [13]: > 67.6 µM (inactive)

Reference: ChEMBL document CHEMBL1201862, “PubChem BioAssay data set” (2004)
